In US8175808B2, “Method for determining disease treatment duration” (Sloan Kettering Institute for Cancer Research, priority 2005, dated 2012):

Columns and labels:
[1] = tested on: MX-1 or MAXF401 human breast cancer xenografts; test: Tumor volume growth in mice bearing human breast cancer xenografts; drug effect DE(t) and time point of maximum impact (TPMI) from Gompertzian/polynomial fits; type: in vivo; settings: for maximum drug effect, DE(TPMI): dimensionless; for elapsed time to zero crossing of derivative DE'(t) (TPMI) / elapsed time after start of treatment to relative maximum in DE(t) (TPMI): pooled data, 14 days on/7 off; for elapsed time after start of treatment to relative maximum in DE(t) (TPMI): first cycle
Excerpt: The untreated series of measurements reveal the progression of the disease without treatment, and therefore it is not obtained from a patient to be treated using the method. Typically the untreated series of measurements describes the progression of the disease in one or more historical cases, or test subjects, or both. For example, the untreated series of measurements describes the progression of tumor volume with time in breast cancer victims who are not treated for some number of weeks. In the illustrated embodiment, described further in later sections, the untreated series of measurements describe tumor volume in mice bearing MX-1 or MAXF401 human breast cancer xenografts approximately every two days for about seven weeks (50 days). FIG. 2A is a graph 210 that illustrates, as solid-filled circles 216, pooled measurements of tumor volume growth for untreated breast cancer in xenograft models (MX-1). Untreated tumor growth is sometimes called “naïve growth.” The horizontal axis 212 indicates the passage of time in days since an initial time. The vertical axis 214 indicates the tumor volume in cubic millimeters (mm^3). The solid trace 218 represents a model fit to the data as described in more detail below.
In the illustrated embodiment, described further in later sections, two treated series of measurements describe tumor volume in mice bearing MX-1 or MAXF401 human breast cancer xenografts approximately every two days for about seven weeks (50 days) during treatment. The treatment involves administering the drug XELODA according to the standard protocol: a 14-day duration of administering the drug at a particular dose, followed by a 7 day hiatus in administering the drug. One treatment uses a lower dose of 1.5 millimoles (mmol) per kilogram (kg) of victim weight per day (mmol/kg/day). A second treatment uses a higher dose of 2.25 mmol/kg/day. Each of the two treated series describes the progression of tumor volume with time in the treated victim of the disease, and includes an initial measurement of tumor volume at or near when the treatment was started, for example just before the first injection of the drug. The initial measurement is used in a later step to relate a treated series to the untreated series, which typically occur in different subjects.
In step 130, a temporal series of effectiveness values is determined. Any method may be used to determine an effectiveness value. In the illustrated embodiment, each effectiveness value indicates the ratio between the rate of change of the physical property for the treated disease and the rate of change for the untreated disease at a corresponding time. For purposes of illustration, it is assumed that the temporal progression of the physical property for the untreated disease is represented by the function Pu(t) and that its rate of change is given by its first time derivative Pu′(t). Similarly, it is assumed that the temporal progression of the physical property for the treated disease is represented by the function Pt(t) and that its rate of change is given by its first time derivative Pt′(t). It is further assumed that the temporal progression of the ratio is represented by the function R(t) and is given by Equation 1 R(t)=Pt′(t)/Pu′(t) (1). In other embodiments, a different definition of ratio is used. For example, in some embodiments the ratio given by the reciprocal of R(t) is used. In the illustrated embodiments, R is the ratio of two physical properties with the same units and is therefore dimensionless.
An effectiveness parameter is often defined that indicates the ratio R(t) but offers a more useful description of the effect of a treatment than the ratio itself. […]

[2] = tested on: MX-1 or MAXF401 human breast cancer xenografts; settings: 6 weeks, CDS (days on/off) 14/7, 5/2, 2/5, 7/7, 4 dose levels plus control; Yanagisawa, Proc. AACR 2004; cited from earlier work

CCCCCOC(=O)Nc1nc(=O)n([C@@H]2O[C@H](C)[C@@H](O)[C@H]2O)cc1F [capecitabine]
maximum drug effect, DE(TPMI) ([1]; 7-day duration/7-day hiatus, high dose 2.5 mmol/kg/day): about 0.8
maximal DE, 7 on/7 off CDS compared with 14 on/7 off CDS ([1]; follow-up experiment, higher daily dose with 7 on/7 off): increased maximal DE
elapsed time to zero crossing of derivative DE'(t) (TPMI) ([1]; higher dose 2.25 mmol/kg/day): 8.3 days
elapsed time after start of treatment to relative maximum in DE(t) (TPMI) ([1]; higher dose 2.25 mmol/kg/day): 8 days
elapsed time to zero crossing of derivative DE'(t) (TPMI) ([1]; lower dose 1.5 mmol/kg/day): 10.1 days
elapsed time after start of treatment to relative maximum in DE(t) (TPMI) ([1]; lower dose 1.5 mmol/kg/day): 10 days
time point of maximum impact (TPMI), averaged, days into therapy ([1]; pooled mice, dose levels analyzed (1.5 and 2.25 mmol/kg/day), 14/7 CDS): 8.3 to 10.1 days
maximum drug effect, DE(TPMI) ([1]; standard protocol, 14-day duration/7-day hiatus): about 0.65
effectiveness of CDS regimens [2]: all were effective at an appropriate dose
